Numbers after ± are expanded uncertainties.
Assay: mn = molality of the nth substance listed, in mol/kg
Conditions: 100 kPa, Liquid, Pycnometric method

O=C([O-])[O-].[Li+].[Li+] [lithium carbonate] + O
Conditions	mass density [kg/m3]
283.15 K, m1 = 0.1933	1007.2 ± 4
298.15 K, m1 = 0.1738	1003.8 ± 4
303.15 K, m1 = 0.1676	1002.2 ± 4
313.15 K, m1 = 0.1558	998.3 ± 4
323.15 K, m1 = 0.1454	993.7 ± 4
333.15 K, m1 = 0.1352	988.5 ± 4
343.15 K, m1 = 0.1251	982.6 ± 4
353.15 K, m1 = 0.1149	976.2 ± 4
363.15 K, m1 = 0.106	969.4 ± 4
368.15 K, m1 = 0.1015	965.2 ± 4

— the NIST ThermoML archive (doi:10.1016/j.jct.2018.03.027)
